Data reported in patent publication US4604239A, “Antibiotics” (Eli Lilly and Company, priority 1985, dated 1986).
Like-named read-outs stand apart in the source and are kept apart here.

Key:
[1] = system: Hemophilus influenzae; test: agar-dilution MIC; assay type: cell-based
[2] = system: Haemophilus parainfluenzae; test: agar-dilution MIC; assay type: cell-based; details: end point after 24 hours, Table 18
[3] = system: Streptococcus sp. Group B; test: agar-dilution MIC; assay type: cell-based; details: Streptococcus sp. Group B 5; end point after 24 hours; Table 18
From the text: (§1) The in vitro activity of antibiotic A41030 factors A and B against a number of representative aerobic, gram-positive bacteria, including Streptococcus sp. Group D, has been determined using a standard agar-dilution assay.

[4] = system: Streptococcus sp. ATCC 10389; test: agar-dilution MIC; assay type: cell-based; details: end point after 24 hours, Table 18
From the text: as §1

[5] = system: Enterobacter aerogenes; test: agar-dilution MIC; assay type: cell-based; details: Enterobacter aerogenes C32; Table 17
From the text: The results after reading the which follows.

[6] = system: Clostridium difficile; assay type: cell-based
[7] = system: S. pneumoniae; test: experimental bacterial infection in mice; assay type: in vivo; details: two doses subcutaneously
Description: All of the A41030 factors tested have shown in vivo antimicrobial activity against experimental bacterial infections. When two doses of test compound were administered subcutaneously to mice in illustrative infections, the activity observed is measured as an ED50 value [effective dose in mg./kg. to protect fifty percent of the test animals: See Warren Wick, et al., J. Bacteriol. 81, 233-235 (1961)].

[8] = system: Bacteroides fragilis; test: agar-dilution MIC; assay type: cell-based
From the text: (§2) The agar-dilution procedure described by the International Collaborative study (ICS) group was used to determine the minimum inhibitory concentrations (MIC's).

[9] = system: Staphylococcus epidermidis; test: agar-dilution MIC; assay type: cell-based
From the text: as §2

N[C@H]1C(=O)N[C@@H]2Cc3ccc(c(Cl)c3)Oc3cc4cc(c3O)Oc3ccc(cc3Cl)[C@@H](O)[C@@H]3NC(=O)C(NC(=O)[C@@H]4NC(=O)[C@@H](NC2=O)c2cc(O)cc(c2)Oc2cc1ccc2O)c1ccc(O)c(c1)-c1c(O)cc(O)cc1[C@@H](C(=O)O)NC3=O [A41030 factor B]
32 µg/mL: MIC ([6]; Clostridium difficile 2994, Table 14) | MIC ([8]; B. fragilis 2, 24-hour, Table 12) | MIC ([8]; B. fragilis 9, 24-hour, Table 12) | MIC ([8]; B. fragilis 103, 24-hour, Table 12) | MIC ([8]; B. fragilis 104, 24-hour, Table 12) | MIC ([8]; B. fragilis 106, 24-hour, Table 12) | MIC ([8]; B. fragilis 107, 24-hour, Table 12) | MIC ([8]; B. fragilis 108, 24-hour, Table 12) | MIC ([8]; B. fragilis 111, 24-hour, Table 12) | MIC ([8]; B. fragilis 112, 24-hour, Table 12) | MIC ([8]; B. fragilis 113, 24-hour, Table 12) | MIC ([8]; B. fragilis 1877, 24-hour, Table 12) | MIC ([8]; B. fragilis 9032, 24-hour, Table 12) | MIC ([8]; Bacteroides fragilis 1877, Table 14) | MIC ([8]; Bacteroides fragilis 1936B, Table 14)
2 µg/mL: MIC ([1]; Haemophilus influenzae 251, Table 17)
8 µg/mL: MIC ([1]; Haemophilus influenzae Brun, Table 17) | MIC ([1]; Haemophilus influenzae C.L., end point after 24 hours, Table 18)
1 µg/mL: MIC [3]
0.5 µg/mL: MIC ([6]; Clostridium difficile 78, Table 16) | MIC ([6]; Clostridium difficile 107B, Table 16) | MIC ([6]; Clostridium difficile A-280, Table 16) | MIC ([6]; Clostridium difficile WAL-4268, Table 16) | MIC ([9]; Staphylococcus epidermidis EPI2, Table 17)
16 µg/mL: MIC ([2]; Haemophilus parainfluenzae 7901) | MIC ([2]; Haemophilus parainfluenzae 9796)
1.4 mg/kg: ED50 [7]
0.06 µg/mL: MIC ([9]; Staphylococcus epidermidis 270, end point after 24 hours, Table 18)
0.25 µg/mL: MIC [4]
1.0 µg/mL: MIC ([6]; Clostridium difficile 111F, Table 16) | MIC ([6]; Clostridium difficile 1153, Table 16) | MIC ([6]; Clostridium difficile 2634, Table 16) | MIC ([6]; Clostridium difficile 3424-5B, Table 16) | MIC ([6]; Clostridium difficile 3816, Table 16) | MIC ([6]; Clostridium difficile 3950D, Table 16) | MIC ([6]; Clostridium difficile 6890, Table 16) | MIC ([6]; Clostridium difficile 8484, Table 16) | MIC ([6]; Clostridium difficile A-194, Table 16) | MIC ([6]; Clostridium difficile A-195, Table 16) | MIC ([6]; Clostridium difficile A-196, Table 16) | MIC ([6]; Clostridium difficile A-279, Table 16) | MIC ([6]; Clostridium difficile A-281, Table 16) | MIC ([6]; Clostridium difficile WAL-2112, Table 16) | MIC ([6]; Clostridium difficile WAL-3657, Table 16)
4 µg/mL: MIC ([1]; Haemophilus influenzae 76, end point after 24 hours, Table 18) | MIC ([1]; Haemophilus influenzae 312, end point after 24 hours, Table 18) | MIC ([1]; Haemophilus influenzae 4842, end point after 24 hours, Table 18) | MIC ([1]; Haemophilus influenzae 16836, end point after 24 hours, Table 18) | MIC ([1]; Haemophilus influenzae Bond, end point after 24 hours, Table 18) | MIC ([1]; Haemophilus influenzae Mx366, end point after 24 hours, Table 18) | MIC ([1]; Haemophilus influenzae Mx371, end point after 24 hours, Table 18)
0.03 µg/mL: MIC ([9]; Staphylococcus epidermidis 219, end point after 24 hours, Table 18) | MIC ([9]; Staphylococcus epidermidis 269, end point after 24 hours, Table 18) | MIC ([9]; Staphylococcus epidermidis 285, end point after 24 hours, Table 18)
64 µg/mL: MIC [5] | MIC ([8]; B. fragilis 110, 24-hour, Table 12) | MIC ([8]; B. fragilis 1451, 24-hour, Table 12) | MIC ([8]; B. fragilis 1470, 24-hour, Table 12) | MIC ([8]; Bacteroides fragilis 111, Table 14)
